From patent publication US9802958B2, “Tetrahydro[1,8]naphthyridine sulfonamide and related compounds for use as agonists of RORy and the treatment of disease” (Lycera Corporation, priority 2012, dated 2017) come the findings set out here.

This test has as its target T1, RORγ-LBD (Homo sapiens, UniProt P51449).
T1 construct: made in house; host or cells: SF9 insect cells, baculovirus; unpurified lysate used
T1 sequence (P51449 269-508 limits assumed): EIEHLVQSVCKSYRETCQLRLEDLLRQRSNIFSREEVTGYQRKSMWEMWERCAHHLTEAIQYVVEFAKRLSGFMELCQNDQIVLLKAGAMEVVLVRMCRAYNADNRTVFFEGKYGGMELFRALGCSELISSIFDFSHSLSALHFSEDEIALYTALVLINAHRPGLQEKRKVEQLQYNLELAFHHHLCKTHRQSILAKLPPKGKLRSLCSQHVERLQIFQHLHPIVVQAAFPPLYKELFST
Briefly: RORγ-Ligand Binding Domain (LBD) TR-FRET Assay. The test is classed as biochemical. To be noted: for EC50: increase of RORγ activity, recombinant HIS-tagged RORγ-LBD, biotinylated SRC1-2 LXXLL peptide. How it is done: Exemplary compounds from the above Examples were tested for ability to increase RORγ activity using a RORγ-Ligand Binding Domain (LBD) TR-FRET Assay. Assay procedures and results are described below.
Recombinant, HIS-tagged RORγ-LBD was expressed in SF9 cells using a baculovirus expression system. Cells were lysed and the lysate was used as a source for RORγ-LBD for the assay. A 1:80 dilution of RORγ-LBD lysate in assay buffer (25 mM HEPES pH 7.0, 100 mM NaCl, 0.01% Tween, 0.1% BSA) was prepared and 5 μL was added to each well (RORγ-LBD final concentration ˜3 nM). Control wells received lysate from SF9 cells not expressing RORγ-LBD.
Compounds to be tested were diluted to 100× final test concentration in DMSO and further diluted to 4× final test concentration using assay buffer to provide the test compound mixture. An aliquot (5 μL) of the test compound mixture was added to each well.
A 4× stock of biotinylated-LXXLL peptide from SRC1-2 (Biotin-[…]) was prepared in assay buffer and a 5 μL aliquot added to each well (450 nM final concentration). A 4× solution of europium tagged anti-HIS antibody (2 nM final concentration) and APC conjugated streptavidin (60 nM final concentration) were prepared and a 5 μL aliquot added to each well.
The final assay mixture was incubated for 4 hours to overnight, and the fluorescence signal was measured on an Envision plate reader: (Excitation filter=340 nm; APC emission=665 nm; Europium emission=615 nm; dichroic mirror=D400/D630; delay time=100 μs, integration time=200 μs).
EC50 values for test compounds were calculated from the quotient of the fluorescence signal at 665 nm divided by the fluorescence signal at 615 nm using GraphPad Prism software.
Background: TR-FRET usually uses a lanthanide donor and a delayed reading to cut background.

In general, EC50 refers to the concentration at which the effect is half-maximal. As to `Cc1cccc(S(=O)(=O)N2CCOc3ccc(OCc4c(Cl)cccc4Cl)nc32)c1` [Compound 5], the EC50 is ≤ 15 µM.

Take `Cc1cccc(S(=O)(=O)N2CCOc3ccc(NC(=O)c4c(Cl)cccc4Cl)nc32)c1` [Compound 2, 2,6-Dichloro-N-[4-(toluene-3-sulfonyl)-3,4-dihydro-2H-pyrido[3,2-b][1,4]oxazin-6-yl]-benzamide]: the EC50 was ≤ 15 µM. Regarding `Cc1cccc(S(=O)(=O)N2CCOc3ccc(OC(C)c4ccccc4)nc32)c1` (stereo not drawn) [Compound 6], the “promotion of RORγ activity” value (assay measuring EC50 values less than or equal to 20 μM) is reported as “No promotion of RORγ activity was detected”. As for `Cc1cccc(S(=O)(=O)N2CCOc3ccc(OCc4ccccc4)nc32)c1` [Compound 4], the EC50 was ≤ 15 µM. Same read-out and setting: as for `O=C(Nc1ccc2c(n1)N(S(=O)(=O)c1ccc(F)cc1)CCC2)c1c(F)cccc1F` [Compound 1, 2,6-Difluoro-N-(8-(4-fluorobenzenesulfonyl)-5,6,7,8-tetrahydro[1,8]naphthyridin-2-yl)benzamide], the figure is ≤ 15 µM; as for `Cc1cccc(S(=O)(=O)N2CCOc3ccc(NC(=O)C(C)c4ccccc4)nc32)c1` (stereo not drawn) [Compound 3, 2-Phenyl-N-[4-(toluene-3-sulfonyl)-3,4-dihydro-2H-pyrido[3,2-b][1,4]oxazin-6-yl]-propionamide], ≤ 15 µM.
